We go through three compounds from ChEMBL document CHEMBL3045497, “An analogue of piperonyl butoxide facilitates the characterisation of metabolic resistance” (Pest Manag Sci, 2009).

The nature of assay [1]: Inhibition of B-type Bemisia tabaci (sweet potato whitefly) esterase using 500 uM of 1-naphthyl butyrate as substrate after 120 min.
Assay [2] concerns Bemisia tabaci. The assay is described as follows: Reversible inhibition of B-type Bemisia tabaci (sweet potato whitefly) esterase using 1-naphthyl butyrate as substrate after 10 to 120 min.
Assay [3] relates to Bemisia tabaci. Kind of assay: Non-competitive inhibition of B-type Bemisia tabaci (sweet potato whitefly) esterase using 1-naphthyl butyrate as substrate after 10 to 120 min.
For assay [4], the system named is Bemisia tabaci. The assay is described as follows: Inhibition of B-type Bemisia tabaci (sweet potato whitefly) oxidase-mediated O-deethylation using 18 uM of 7-ethoxycoumarin as substrate assessed as residual activity after 10 min relative to control.
Assay [5] is described as follows: Inhibition of B-type Bemisia tabaci (sweet potato whitefly) esterase using 500 uM of 1-naphthyl butyrate as substrate after 10 min.
Assay [6] deals with Bemisia tabaci. The assay is described as follows: Inhibition of B-type Bemisia tabaci (sweet potato whitefly) oxidase-mediated O-deethylation using 285 uM of 7-ethoxycoumarin as substrate assessed as residual activity after 10 min relative to control.
Assay [7] has as its system Bemisia tabaci. The assay is described as follows: Inhibition of B-type Bemisia tabaci (sweet potato whitefly) oxidase-mediated O-deethylation using 285 uM of 7-ethoxycoumarin as substrate assessed as residual activity after 120 min relative to control.
A short description of assay [8]: Inhibition of B-type Bemisia tabaci (sweet potato whitefly) esterase using 31.25 uM of 1-naphthyl butyrate as substrate after 120 min.
Assay [9] deals with Bemisia tabaci. The assay is described as follows: Insecticidal activity against drug-susceptible Bemisia tabaci SUD-S (sweet potato whitefly) in cotton plant leaf assessed as mortality after 48 hr in presence of PBO pretreated 5 hr before compound challenge. The class given is functional.
In assay [10] the test system is Bemisia tabaci. The assay is described as follows: Insecticidal activity against drug-resistant Bemisia tabaci GUAMIX (sweet potato whitefly) in cotton plant leaf assessed as mortality after 48 hr in presence of PBO pretreated 5 hr before compound challenge. The format is functional.
Assay [11] has as its system Bemisia tabaci. The assay is described as follows: Insecticidal activity against drug-susceptible Bemisia tabaci SUD-S (sweet potato whitefly) in cotton plant leaf assessed as mortality after 48 hr. The format is functional.
Assay [12] relates to Bemisia tabaci. The assay is described as follows: Resistant factor, ratio of LC50 for […] (sweet potato whitefly) in presence of EN 16/5-1. The format is functional.
Assay [13] relates to Bemisia tabaci. The assay is described as follows: Insecticidal activity against drug-resistant Bemisia tabaci GUAMIX (sweet potato whitefly) in cotton plant leaf assessed as mortality after 48 hr in presence of EN 16/5-1 pretreated 5 hr before compound challenge. The format is functional.
Assay [14] relates to Bemisia tabaci. The assay is described as follows: Insecticidal activity against drug-resistant Bemisia tabaci GUAMIX (sweet potato whitefly) in cotton plant leaf assessed as mortality after 48 hr. The class given is functional.
Assay [15] has as its system Bemisia tabaci. Kind of assay: Resistant factor, ratio of LC50 for […] (sweet potato whitefly) in presence of PBO. The class given is functional.
The subject of assay [16] is Bemisia tabaci. Kind of assay: Insecticidal activity against drug-susceptible Bemisia tabaci SUD-S (sweet potato whitefly) in cotton plant leaf assessed as mortality after 48 hr in presence of EN 16/5-1 pretreated 5 hr before compound challenge. The class given is functional.
The test system of assay [17] is Bemisia tabaci. The assay is described as follows: Resistant factor, ratio of LC50 for drug-susceptible Bemisia tabaci SUD-S (sweet potato whitefly) to LC50 for drug-resistant Bemisia tabaci GUAMIX (sweet potato whitefly). The format is functional.

Converted amounts (≈) assume the structure as drawn. The source made the active and inactive calls. The rule behind the calls is not given here.

In the case of `CCCCOCCOCCOCc1cc2c(cc1CCC)CCO2`, the IC50 is 5.4 µM in assay [1], 6.5 µM in assay [5] and 4.8 µM in [8]. Further, the inhibition entry in the assay with Bemisia tabaci [2] and in the assay on Bemisia tabaci [3] was “Active” each time. The Activity in the assay on Bemisia tabaci [4] turned out to be 42%; in the assay on Bemisia tabaci [6], 78%; in the assay with Bemisia tabaci [7], 82%.

Consider `O=[N+]([O-])/N=C1\NCCN1Cc1ccc(Cl)nc1` [IMIDACLOPRID], for which the LC50 is 0.49 µg/mL with Bemisia tabaci [9]; 32.1 µg/mL with Bemisia tabaci [10]; 1.49 µg/mL (≈ 5.83 µM) in the assay on Bemisia tabaci [11]; 847 µg/mL with Bemisia tabaci [13]; above 1000 µg/mL in the assay with Bemisia tabaci [14]; 0.94 µg/mL in the assay with Bemisia tabaci [16]. Further, the values for the RatioLC50 in the assay with Bemisia tabaci [12], in the assay on Bemisia tabaci [15] and with Bemisia tabaci [17] were 900, 65.5 and above 670, respectively.

With `CCCCOCCOCCOCc1cc2c(cc1CCC)OCO2` [PIPERONYL BUTOXIDE], the IC50 in assay [1] was determined as 5.1 µM; in assay [5] it was 4.7 µM; in [8], 5.4 µM. Further, the inhibition result in the assay on Bemisia tabaci [2] and in the assay on Bemisia tabaci [3] was “Active” throughout. Also, the Activity worked out at 16% in the assay with Bemisia tabaci [4], 24% in the assay with Bemisia tabaci [6] and 27% with Bemisia tabaci [7].
